Data from ChEMBL document CHEMBL2331273 (Bioorg Med Chem Lett, 2013).
Active and inactive are the calls of the source. The rule behind the calls is not given here.

What follows are compounds tested against Beta-2 adrenergic receptor (Cavia porcellus, UniProt Q8K4Z4) (assay: Agonist activity at beta2-adrenoceptor in guinea pig trachea assessed as relaxation of histamine-induced precontracted tracheal rings).
Chain of Beta-2 adrenergic receptor (Q8K4Z4 whole entry): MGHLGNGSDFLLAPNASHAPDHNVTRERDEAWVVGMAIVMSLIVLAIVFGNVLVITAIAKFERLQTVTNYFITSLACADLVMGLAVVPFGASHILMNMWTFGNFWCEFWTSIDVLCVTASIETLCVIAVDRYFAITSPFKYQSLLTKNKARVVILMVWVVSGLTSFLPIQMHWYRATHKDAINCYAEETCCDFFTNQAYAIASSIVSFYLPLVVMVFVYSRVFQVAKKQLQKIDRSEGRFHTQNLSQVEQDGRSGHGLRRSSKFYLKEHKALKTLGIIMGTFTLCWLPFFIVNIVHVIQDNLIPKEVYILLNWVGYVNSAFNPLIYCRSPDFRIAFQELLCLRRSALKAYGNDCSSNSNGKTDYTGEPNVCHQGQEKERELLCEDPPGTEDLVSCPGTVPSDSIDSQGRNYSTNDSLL

**Q.** With COc1ccc(C(=O)Nc2c(Cl)cncc2Cl)cc1OCCCCNCC(O)c1ccc(O)c(CO)c1 (centres undefined) as the compound, how does the EC50 read?
**A.** 2.82 nM

**Q.** How did the EC50 turn out when COc1ccc(C(=O)Nc2c(Cl)cncc2Cl)cc1OCCCNCC(O)c1ccc(O)c(CO)c1 (centres undefined) was run?
**A.** 3.39 nM

**Q.** Which EC50 does the source give for COc1ccc(C2=NN(CCCCNCC(O)c3ccc(O)c(CO)c3)C(=O)C3CCCCC23)cc1OC (centres undefined) here?
**A.** 0.676 nM

**Q.** For COc1ccc(C2=NN(CCCCCNCC(O)c3ccc(O)c(CO)c3)C(=O)C3CCCCC23)cc1OC (centres undefined), which EC50 is on record?
**A.** 0.832 nM

**Q.** For COc1ccc(C(=O)Nc2c(Cl)cncc2Cl)cc1OCCCCCNCC(O)c1ccc(O)c(CO)c1 (centres undefined), which EC50 is on record?
**A.** 1.95 nM

**Q.** Which EC50 does the source give for COc1ccc(C2=NN(CCNCC(O)c3ccc(O)c(CO)c3)C(=O)C3CCCCC23)cc1OC (centres undefined) here?
**A.** 0.646 nM

**Q.** For CC(C)NCC(O)c1ccc(O)c(O)c1 (centres undefined) [ISOPROTERENOL], which EC50 is on record?
**A.** 28.8 nM

**Q.** For COc1ccc(C2=NN(CCCCCCNCC(O)c3ccc(O)c(CO)c3)C(=O)C3CCCCC23)cc1OC (centres undefined), which EC50 is on record?
**A.** 0.631 nM

**Q.** How did the EC50 turn out when COc1ccc(C(=O)Nc2c(Cl)cncc2Cl)cc1OCCCCCCNCC(O)c1ccc(O)c(CO)c1 (centres undefined) was run?
**A.** 3.16 nM

Each compound was assayed against 3',5'-cyclic-AMP phosphodiesterase 4B (Homo sapiens, UniProt Q07343) (assay: Inhibition of human recombinant PDE4B2 assessed as decrease in cAMP hydrolysis preincubated with substrate prior to enzyme addition measured after 30 mins by colorimetric assay method).
Chain of 3',5'-cyclic-AMP phosphodiesterase 4B (Q07343 whole entry): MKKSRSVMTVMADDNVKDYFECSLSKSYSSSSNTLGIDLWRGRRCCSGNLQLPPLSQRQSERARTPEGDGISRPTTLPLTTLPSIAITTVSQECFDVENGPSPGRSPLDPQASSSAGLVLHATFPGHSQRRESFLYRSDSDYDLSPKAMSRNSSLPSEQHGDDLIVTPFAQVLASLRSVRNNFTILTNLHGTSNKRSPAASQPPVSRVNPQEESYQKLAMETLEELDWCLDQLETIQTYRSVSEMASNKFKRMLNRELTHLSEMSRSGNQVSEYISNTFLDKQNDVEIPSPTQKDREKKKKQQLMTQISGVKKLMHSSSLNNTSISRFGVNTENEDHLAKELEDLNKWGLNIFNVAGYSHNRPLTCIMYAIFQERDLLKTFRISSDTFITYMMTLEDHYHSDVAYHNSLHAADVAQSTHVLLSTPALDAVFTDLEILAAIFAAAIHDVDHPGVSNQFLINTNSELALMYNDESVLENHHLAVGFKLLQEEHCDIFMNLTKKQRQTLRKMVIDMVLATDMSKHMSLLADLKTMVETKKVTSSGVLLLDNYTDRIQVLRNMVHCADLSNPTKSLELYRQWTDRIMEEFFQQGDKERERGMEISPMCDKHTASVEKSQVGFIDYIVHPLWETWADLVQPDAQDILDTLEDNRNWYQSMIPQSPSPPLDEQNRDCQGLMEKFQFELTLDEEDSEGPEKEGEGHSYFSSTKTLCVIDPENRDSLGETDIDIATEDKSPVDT

**Q.** For COc1ccc(C(=O)Nc2c(Cl)cncc2Cl)cc1OCCCCNCC(O)c1ccc(O)c(CO)c1 (centres undefined), which IC50 is on record?
**A.** 601 nM

**Q.** How did the IC50 turn out when COc1ccc(C(=O)Nc2c(Cl)cncc2Cl)cc1OCCCNCC(O)c1ccc(O)c(CO)c1 (centres undefined) was run?
**A.** 1090 nM

**Q.** Which IC50 does the source give for COc1ccc(C2=NN(CCCCNCC(O)c3ccc(O)c(CO)c3)C(=O)C3CCCCC23)cc1OC (centres undefined) here?
**A.** 278 nM

**Q.** For COc1ccc(C2=NN(CCCCCNCC(O)c3ccc(O)c(CO)c3)C(=O)C3CCCCC23)cc1OC (centres undefined), which IC50 is on record?
**A.** 271 nM

**Q.** COc1ccc(C(=O)Nc2c(Cl)cncc2Cl)cc1OCCCCCNCC(O)c1ccc(O)c(CO)c1 (centres undefined) was tested. Which IC50 did it give?
**A.** 394 nM

**Q.** COc1ccc(C2=NN(CCNCC(O)c3ccc(O)c(CO)c3)C(=O)C3CCCCC23)cc1OC (centres undefined) was tested. Which IC50 did it give?
**A.** 282 nM

**Q.** For COc1ccc(C2=NN(CCCCCCNCC(O)c3ccc(O)c(CO)c3)C(=O)C3CCCCC23)cc1OC (centres undefined), which IC50 is on record?
**A.** 263 nM

**Q.** For COc1ccc(C(=O)Nc2c(Cl)cncc2Cl)cc1OCCCCCCNCC(O)c1ccc(O)c(CO)c1 (centres undefined), which IC50 is on record?
**A.** 235 nM

Each compound was assayed against Beta-2 adrenergic receptor (Cavia porcellus) (UniProt Q8K4Z4) (assay: Agonist activity at beta2-adrenoceptor in guinea pig trachea assessed as relaxation of histamine-induced precontracted tracheal rings treated 10 mins after histamine and beta2-adrenoceptor antagonist, ICI 118,551 addition).
Chain of Beta-2 adrenergic receptor (Cavia porcellus) (Q8K4Z4 whole entry, looked up): as the sequence (Q8K4Z4 whole entry) above

**Q.** How did the Activity turn out when COc1ccc(C2=NN(CCCCCCNCC(O)c3ccc(O)c(CO)c3)C(=O)C3CCCCC23)cc1OC (centres undefined) was run?
**A.** inactive

**Q.** For COc1ccc(C(=O)Nc2c(Cl)cncc2Cl)cc1OCCCCCCNCC(O)c1ccc(O)c(CO)c1 (centres undefined), which Activity is on record?
**A.** inactive
